Assay results: patent US20200016086A1, “Nanoparticulate Materials and Methods for Targeting Iron Acquisition and Metabolism for Treating Bacterial Infections” (KENT STATE UNIVERSITY, priority 2017, published 2020)

How the values were obtained:
[1] = assay type: physicochemical; conditions: buffer
Experimental: The kinetics of Fe^2+ removal was followed by measuring the decrease of Fe^2+ ion concentration in aqueous solution where the dialysis bag containing the PVP-coated CaPB NPs was immersed. The simultaneous increase of Ca^2+ ion concentration in the same solution was also determined quantitatively by AAS to verify the kinetics (FIG. 5b).

[2] = tested on: Staphylococcus aureus; assay: Bacterial cytotoxicity / growth inhibition of S. aureus in TSB medium (OD600); assay type: cell-based; conditions: concentration range of 10 μM to 400 μM

| Compound | half-life T1/2 of Fe^2+ removal [1] | effect on growth of S. aureus [2] |
| --- | --- | --- |
| KCa[Fe^III(CN)6].n H2O [CaPB^III NPs] | 55 min |  |
| [Ca+2].[Cl-].[Cl-] [CaCl2] |  | no effect on growth |
